What was measured:
[1] = target: T1, β1-AR (Homo sapiens, UniProt P08588); assay: Competition binding assay, membranes with recombinant β1-AR
T1 construct: expressed in transfected cells; membranes prepared from them

[2] = target: β2-AR (Homo sapiens, UniProt P07550); assay: Competition binding assay, membranes with recombinant β2-AR
[3] = Plasma protein binding; assay type: in vitro ADME; conditions: human, plasma
[4] = tested on: human plasma proteins; assay: Plasma protein binding; assay type: in vitro ADME
[5] = target: CYP3A4 (Homo sapiens, UniProt P08684); assay: In vitro CYP metabolism; assay type: in vitro ADME
Sequence of CYP3A4 (P08684 whole entry): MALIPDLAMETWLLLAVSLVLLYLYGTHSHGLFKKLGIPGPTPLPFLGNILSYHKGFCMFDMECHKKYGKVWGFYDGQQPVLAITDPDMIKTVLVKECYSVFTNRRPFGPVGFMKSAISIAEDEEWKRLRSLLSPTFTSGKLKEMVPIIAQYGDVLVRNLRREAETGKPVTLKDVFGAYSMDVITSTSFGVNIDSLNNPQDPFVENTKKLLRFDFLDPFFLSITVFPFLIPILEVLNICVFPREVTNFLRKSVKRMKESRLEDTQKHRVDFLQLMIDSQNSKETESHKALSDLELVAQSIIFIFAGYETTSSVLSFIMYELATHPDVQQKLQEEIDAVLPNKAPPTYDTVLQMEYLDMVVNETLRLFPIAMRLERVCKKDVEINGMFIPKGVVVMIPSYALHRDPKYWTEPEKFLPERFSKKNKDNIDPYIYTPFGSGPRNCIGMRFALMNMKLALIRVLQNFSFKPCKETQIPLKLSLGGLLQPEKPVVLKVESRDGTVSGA

[6] = Single rising oral dose Phase 1 pharmacokinetics; assay type: in vivo, human
Procedure: The steady state AUC geometric mean accumulation ratios were ˜2 in young male subjects and ˜2.8 in elderly subjects (male and female).
All subjects were healthy adults. […] Systemic exposures were greater than dose proportional up to 600 mg.

[7] = Effect of food on oral absorption; assay type: in vivo, human; conditions: for mean AUC0-24 with food compared to fasted state / mean Cmax with food compared to fasted state: 150 mg multiple doses, middle-aged and elderly females
[8] = tested on: patients with OAB; assay: Phase 3 open-label 52-week study in OAB; assay type: in vivo, human; conditions: 50 mg or 100 mg once daily, 52-week treatment period
Procedure: After eight weeks, the dose could be increased to 100 mg once daily as clinically indicated.

[9] = tested on: patients with OAB; assay: Phase 2b cardiovascular safety: orthostatic AEs, HR and BP changes; assay type: in vivo, human; conditions: for DBP change from baseline ≥5 mm Hg, subjects / DBP change from baseline ≥10 bpm, subjects / DBP change from baseline ≥15 bpm, subjects / HR change from baseline ≥5 bpm, subjects / HR change from baseline ≥10 bpm, subjects / HR change from baseline ≥15 bpm, subjects / SBP change from baseline ≥5 mm Hg, subjects / SBP change from baseline ≥10 bpm, subjects / SBP change from baseline ≥15 bpm, subjects: 3 consecutive post-baseline visits
From the text: None led to discontinuation. The overall incidence of orthostatic symptoms was low.
Small differences in the percent of subjects exceeding categorical heart rate and blood pressure thresholds for vibegron were similar to those in the tolterodine arm.

[10] = 50 mg with high-fat meal, non-Japanese young males
[11] = 50 mg with standard Japanese breakfast, Japanese young males
[12] = 150 mg multiple doses with food, middle-aged females, Day 14
[13] = multiple dose 150 mg, day 14, non-Japanese middle-aged females, fasted

Sequence of β2-AR (P07550 whole entry): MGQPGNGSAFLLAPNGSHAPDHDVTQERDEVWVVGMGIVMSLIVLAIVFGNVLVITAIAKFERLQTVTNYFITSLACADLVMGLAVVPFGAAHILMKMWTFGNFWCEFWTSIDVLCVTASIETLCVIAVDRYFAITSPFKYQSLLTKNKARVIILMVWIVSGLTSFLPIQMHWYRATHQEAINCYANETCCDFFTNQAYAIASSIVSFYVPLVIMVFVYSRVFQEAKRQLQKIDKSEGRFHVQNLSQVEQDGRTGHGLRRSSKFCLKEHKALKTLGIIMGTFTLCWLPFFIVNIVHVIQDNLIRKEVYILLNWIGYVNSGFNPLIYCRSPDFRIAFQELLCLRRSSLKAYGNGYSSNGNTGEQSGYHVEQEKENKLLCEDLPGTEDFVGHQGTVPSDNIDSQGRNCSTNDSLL
T1 sequence (P08588 whole entry): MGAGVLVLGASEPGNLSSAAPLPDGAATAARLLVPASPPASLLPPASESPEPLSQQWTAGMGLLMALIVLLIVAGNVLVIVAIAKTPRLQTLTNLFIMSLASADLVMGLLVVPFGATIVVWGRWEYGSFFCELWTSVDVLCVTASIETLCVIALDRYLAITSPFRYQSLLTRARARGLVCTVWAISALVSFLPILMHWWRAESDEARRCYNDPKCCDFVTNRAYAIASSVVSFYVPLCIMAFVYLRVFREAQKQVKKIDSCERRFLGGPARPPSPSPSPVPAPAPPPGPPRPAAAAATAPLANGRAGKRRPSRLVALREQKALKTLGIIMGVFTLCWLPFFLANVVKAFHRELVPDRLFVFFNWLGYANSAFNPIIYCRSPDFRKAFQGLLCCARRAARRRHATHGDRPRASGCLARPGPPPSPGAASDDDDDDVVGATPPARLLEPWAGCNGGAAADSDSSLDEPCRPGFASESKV

## O=C(Nc1ccc(C[C@@H]2CC[C@H]([C@H](O)c3ccccc3)N2)cc1)[C@@H]1CCc2nccc(=O)n21 [Vibegron, (6S)—N-[4-[[(2S,5R)-5-[(R)-hydroxy(phenyl)methyl]pyrrolidin-2-yl]methyl]phenyl]-4-oxo-7,8-dihydro-6H-pyrrolo[1,2-a]pyrimidine-6-carboxamide]
[1]
  binding to β1-AR: does not bind
[2]
  binding to β2-AR: does not bind
[3]
  fraction unbound: 0.49
[4]
  bound to human plasma proteins: approximately 49%
[5]
  CYP responsible for in vitro metabolism: CYP3A4 is the predominant CYP responsible for in vitro metabolism
[6]; single dose
  exposure increase, young Japanese vs non-Japanese young males: < 2 fold
[6]; single dose 50 mg, Japanese healthy young males
  t1/2 (harmonic mean ± pseudo SD): 64.4 ± 8.7 h
[6]; single dose 50 mg, elderly male and female
  t1/2 (harmonic mean ± pseudo SD): 92.1 ± 15.9 h
[6]; single dose 200 mg, healthy young males
  t1/2 (harmonic mean ± pseudo SD): 75.3 ± 9.1 h
[6]; single dose 450 mg, healthy young males
  t1/2 (harmonic mean ± pseudo SD): 60.0 ± 9.4 h
[7]; [10]
  delay in Tmax vs fasted: ~1 h
  reduction in AUC0-inf vs fasted: 46%
  reduction in Cmax vs fasted: 67%
[7]; [11]
  reduction in AUC0-inf vs fasted: 37%
  reduction in Cmax vs fasted: 52%
[7]; [12]
  reduction in mean AUC0-24 hr vs fasted: 20%
  reduction in mean Cmax vs fasted: 47%
[7]; Day 1
  mean AUC0-24 with food compared to fasted state: ~42%
  mean Cmax with food compared to fasted state: 59%
[7]; Day 14
  mean AUC0-24 with food compared to fasted state: ~20%
  mean Cmax with food compared to fasted state: 43%
[7]; [13]
  AUC0-24: 3180 ± 925 ng·h/mL
  Cmax: 346 ± 139 ng/mL
  Ctrough: 62.7 ± 12.4 ng/mL
[8]
  long-term efficacy: reduced episodes of micturitions, UUI episodes, total incontinence episodes, and urgency episodes
[9]; 50 mg and 100 mg
  SBP and DBP mean changes at Week 1 and mean maximum changes over 8 weeks, difference between placebo and vibegron: < 1 mm Hg
[9]; all doses
  HR mean maximum changes over 8 weeks, comparable to placebo: < 2 bpm
[9]; vibegron 3 mg
  DBP change from baseline, mean (week 1): −0.37 mm Hg
  DBP change from baseline, mean maximum (week 1 to 8): 5.03 mm Hg
  HR change from baseline, mean (week 1): 0.36 bpm
  HR change from baseline, mean maximum (week 1 to 8): 5.57 bpm
  SBP change from baseline, mean (week 1): −0.35 mm Hg
  SBP change from baseline, mean maximum (week 1 to 8): 7.14 mm Hg
  DBP change from baseline ≥5 mm Hg, subjects: (10.0) %
  DBP change from baseline ≥10 bpm, subjects: (2.1) %
  DBP change from baseline ≥15 bpm, subjects: (0.7) %
  HR change from baseline ≥5 bpm, subjects: (11.4) %
  HR change from baseline ≥10 bpm, subjects: (3.6) %
  HR change from baseline ≥15 bpm, subjects: (0.7) %
  SBP change from baseline ≥5 mm Hg, subjects: (15.0) %
  SBP change from baseline ≥10 bpm, subjects: (7.1) %
  SBP change from baseline ≥15 bpm, subjects: (2.9) %
[9]; vibegron 15 mg
  DBP change from baseline, mean (week 1): 0.03 mm Hg
  DBP change from baseline, mean maximum (week 1 to 8): 6.37 mm Hg
  HR change from baseline, mean (week 1): 0.35 bpm
  HR change from baseline, mean maximum (week 1 to 8): 6.56 bpm
  SBP change from baseline, mean (week 1): −0.34 mm Hg
  SBP change from baseline, mean maximum (week 1 to 8): 8.93 mm Hg
  DBP change from baseline ≥5 mm Hg, subjects: (11.4) %
  DBP change from baseline ≥10 bpm, subjects: (2.3) %
  DBP change from baseline ≥15 bpm, subjects: (0.8) %
  HR change from baseline ≥5 bpm, subjects: (12.9) %
  HR change from baseline ≥10 bpm, subjects: (3.0) %
  HR change from baseline ≥15 bpm, subjects: (0.8) %
  SBP change from baseline ≥5 mm Hg, subjects: (16.7) %
  SBP change from baseline ≥10 bpm, subjects: (6.8) %
  SBP change from baseline ≥15 bpm, subjects: (0.8) %
[9]; vibegron 15 mg group
  subjects with orthostatic related AEs: 0.3%
[9]; vibegron 50 mg
  DBP change from baseline, mean (week 1): −0.70 mm Hg
  DBP change from baseline, mean maximum (week 1 to 8): 4.19 mm Hg
  HR change from baseline, mean (week 1): 0.29 bpm
  HR change from baseline, mean maximum (week 1 to 8): 5.49 bpm

Reference: US20230218624A1 (Urovant Sciences GmbH, priority 2017, published 2023)
